Data from US5416191A, “Bradykinin antagonists” (Cortech, Inc., priority 1993, dated 1995).
Peptide text beside a SMILES is read from it.

Experiments:
[1] = biological target: T1, bradykinin receptor of the B2 class (rat uterus) (Rattus norvegicus, UniProt P25023); assay: Rat uterus (RU) in vitro, antagonism of bradykinin; details: Table C, rat uterus
T1 construct: concentration effect curves to bradykinin (BK) on rat uterus in vitro; from tissue; host or cells: rat uterus
T1 sequence (P25023 1-396): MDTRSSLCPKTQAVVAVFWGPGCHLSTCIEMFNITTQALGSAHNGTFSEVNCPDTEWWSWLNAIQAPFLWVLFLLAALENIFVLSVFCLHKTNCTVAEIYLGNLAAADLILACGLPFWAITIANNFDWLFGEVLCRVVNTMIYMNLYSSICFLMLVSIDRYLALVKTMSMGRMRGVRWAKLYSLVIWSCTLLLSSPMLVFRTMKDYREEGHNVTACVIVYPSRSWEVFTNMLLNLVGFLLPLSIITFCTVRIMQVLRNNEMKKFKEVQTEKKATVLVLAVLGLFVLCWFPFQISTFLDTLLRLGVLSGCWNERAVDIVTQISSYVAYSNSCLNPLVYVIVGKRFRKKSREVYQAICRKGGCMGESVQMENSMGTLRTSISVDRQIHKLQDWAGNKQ
Procedure, shortened: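 Isolated rat uterus; bradykinin antagonism expressed as pA2, the negative log molar antagonist concentration that halves agonist potency. After the highest antagonist concentration, tissues were washed extensively and percent recovery was recorded.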

[2] = biological target: T2, bradykinin receptor of the B2 class (guinea-pig ileum) (Cavia porcellus, UniProt O70526); details: Table B; Cys position scan, monomers and BMH dimers
T2 sequence (O70526 1-372): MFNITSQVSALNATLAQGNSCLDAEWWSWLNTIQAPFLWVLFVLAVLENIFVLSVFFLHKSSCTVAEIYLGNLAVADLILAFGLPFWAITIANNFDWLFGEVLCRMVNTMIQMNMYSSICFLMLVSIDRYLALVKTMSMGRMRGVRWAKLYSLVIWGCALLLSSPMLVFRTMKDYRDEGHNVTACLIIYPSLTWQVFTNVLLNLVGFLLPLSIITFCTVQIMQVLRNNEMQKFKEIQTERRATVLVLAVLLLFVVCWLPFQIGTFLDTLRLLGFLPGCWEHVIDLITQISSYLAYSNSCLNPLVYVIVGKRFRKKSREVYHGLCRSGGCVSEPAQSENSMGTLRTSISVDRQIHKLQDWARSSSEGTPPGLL

Compound	pA2 DIMER [1]	pA2 GUINEA PIG ILEUM [2]	pA2 MONOMER ([1]; P.A. = Partial Agonist)	% REC MONOMER [1]	Kb ([1]; P.A. = Partial Agonist, read-out: pA2 MONOMER (converted))
CC(C)C[C@H](NC(=O)[C@@H](Cc1ccccc1)NC(=O)[C@H](CO)NC(=O)[C@H](Cc1ccccc1)NC(=O)[C@H](CSC1CC(=O)N(CCCCCCN2C(=O)CC(SC[C@H](NC(=O)[C@@H]3C[C@@H](O)CN3C(=O)[C@@H]3CCCN3C(=O)[C@H](CCCNC(=N)N)NC(=O)[C@H](N)CCCNC(=N)N)C(=O)N[C@@H](Cc3ccccc3)C(=O)N[C@@H](CO)C(=O)N[C@H](Cc3ccccc3)C(=O)N[C@@H](CC(C)C)C(=O)N[C@@H](CCCNC(=N)N)C(=O)O)C2=O)C1=O)NC(=O)[C@@H]1C[C@@H](O)CN1C(=O)[C@@H]1CCCN1C(=O)[C@H](CCCNC(=N)N)NC(=O)[C@H](N)CCCNC(=N)N)C(=O)N[C@@H](CCCNC(=N)N)C(=O)O (stereo partly drawn) [CP-0137] (HELM PEPTIDE1{[dR].R.P.[Hyp].C.F.S.[dF].L.R}|PEPTIDE2{[dR].R.P.[Hyp].C.F.S.[dF].L.R}|CHEM1{[O=C1CC([*:1])C(=O)N1CCCCCCN1C(=O)CC([*:2])C1=O]}$PEPTIDE1,CHEM1,5:R3-1:R1|PEPTIDE2,CHEM1,5:R3-1:R2$$$V2.0)	Inactive	Inactive	–	–	–
CC(C)C[C@H](NC(=O)[C@H](CS)NC(=O)[C@H](CO)NC(=O)[C@H](Cc1ccccc1)NC(=O)CNC(=O)[C@@H]1C[C@@H](O)CN1C(=O)[C@@H]1CCCN1C(=O)[C@H](CCCNC(=N)N)NC(=O)[C@H](N)CCCNC(=N)N)C(=O)N[C@@H](CCCNC(=N)N)C(=O)O [CP-0145] (HELM PEPTIDE1{[dR].R.P.[Hyp].G.F.S.C.L.R}$$$$V2.0)	–	Inactive	Inactive	–	–
CC(C)C[C@H](NC(=O)[C@@H](CS)NC(=O)[C@H](CO)NC(=O)[C@H](Cc1ccccc1)NC(=O)CNC(=O)[C@@H]1C[C@@H](O)CN1C(=O)[C@@H]1CCCN1C(=O)[C@H](CCCNC(=N)N)NC(=O)[C@H](N)CCCNC(=N)N)C(=O)N[C@@H](CCCNC(=N)N)C(=O)O [CP-0146] (HELM PEPTIDE1{[dR].R.P.[Hyp].G.F.S.[dC].L.R}$$$$V2.0)	–	Inactive	Inactive	–	–
N=C(N)NCCC[C@@H](N)C(=O)N[C@@H](CCCNC(=N)N)C(=O)N1CCC[C@H]1C(=O)N1C[C@H](O)C[C@H]1C(=O)NCC(=O)N[C@@H](Cc1ccccc1)C(=O)N[C@@H](CO)C(=O)N[C@H](Cc1ccccc1)C(=O)N[C@@H](CS)C(=O)N[C@@H](CCCNC(=N)N)C(=O)O [CP-0147] (HELM PEPTIDE1{[dR].R.P.[Hyp].G.F.S.[dF].C.R}$$$$V2.0)	–	Inactive	Inactive	–	–
CC(C)C[C@H](NC(=O)[C@@H](Cc1ccccc1)NC(=O)[C@H](CO)NC(=O)[C@H](Cc1ccccc1)NC(=O)CNC(=O)[C@@H]1C[C@@H](O)CN1C(=O)[C@@H]1CCCN1C(=O)[C@H](CCCNC(=N)N)NC(=O)[C@H](N)CCCNC(=N)N)C(=O)N[C@@H](CS)C(=O)O [CP-0148] (HELM PEPTIDE1{[dR].R.P.[Hyp].G.F.S.[dF].L.C}$$$$V2.0)	–	Inactive	Inactive	100%	200 nM
